Laboratory results as given in patent publication US8802720B2, “Acylamino-substituted fused cyclopentanecarboxylic acid derivatives and their use as pharmaceuticals” (SANOFI, priority 2008, dated 2014).

Target: human Edg-2 receptor (LPA1 receptor) (Homo sapiens, UniProt Q92633)
Experiment: Edg-2 receptor inhibition by FLIPR calcium fluorescence measurement (LPA-mediated calcium liberation)
Assay type: cell-based
Conditions: CHO cells stably overexpressing human Edg-2 receptor; LPA 18:1 100 nM; fluo-4 fluorescence; triplicate; read-out: Inhibitory concentrations IC50 for inhibition of the Edg-2 receptor
Procedure, shortened: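 CHO cells stably overexpressing human Edg-2 were fluo-4 loaded and pre-incubated ~5 min with compound (≤0.3% DMSO) in HBSS/HEPES/probenecid, pH 7.5. Then LPA 18:1 at 100 nM final was added. Peak calcium fluorescence over ~3 min, baseline-corrected versus DMSO, gave % inhibition in triplicate and IC50.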

Chain of human Edg-2 receptor (LPA1 receptor) (Q92633 whole entry): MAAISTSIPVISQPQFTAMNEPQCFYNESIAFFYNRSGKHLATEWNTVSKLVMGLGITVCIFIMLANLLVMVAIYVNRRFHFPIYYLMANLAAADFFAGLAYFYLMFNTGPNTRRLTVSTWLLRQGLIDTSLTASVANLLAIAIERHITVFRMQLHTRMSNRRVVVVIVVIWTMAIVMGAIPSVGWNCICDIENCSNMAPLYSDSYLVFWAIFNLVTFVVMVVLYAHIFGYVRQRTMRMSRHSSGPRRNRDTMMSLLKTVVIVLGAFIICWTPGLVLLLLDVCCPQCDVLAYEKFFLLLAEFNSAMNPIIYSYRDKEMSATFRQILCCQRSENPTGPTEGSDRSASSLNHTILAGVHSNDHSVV

Row | SMILES | IC50
1 | COc1ccc(C(=O)NC2(C(=O)O)Cc3ccccc3C2)cc1-c1ccc(Cl)c(C(F)(F)F)c1 [Example 310] | 100 to 1000 nM
2 | CCS(=O)(=O)c1cccc(-c2cc(C(=O)NC3(C(=O)O)Cc4ccccc4C3)ccc2OC)c1 [Example 312, 2-[(3′-ethanesulfonyl-6-methoxy-biphenyl-3-carbonyl)-amino]-indane-2-carboxylic acid] | 100 to 1000 nM
3 | COc1ccc(C(=O)NC2(C(=O)O)Cc3ccccc3C2)cc1-c1cc(C)cc(C(C)(C)C)c1 [Example 313] | < 100 nM
4 | COc1ccc(C(=O)NC2(C(=O)O)Cc3ccccc3C2)cc1-c1cc(Cl)ccc1C [Example 314] | < 100 nM
5 | COCc1cccc(-c2cc(C(=O)NC3(C(=O)O)Cc4ccccc4C3)ccc2OC)c1 [Example 315] | < 100 nM
6 | COCc1ccccc1-c1cc(C(=O)NC2(C(=O)O)Cc3ccccc3C2)ccc1OC [Example 316] | 100 to 1000 nM
7 | COc1ccc(C(=O)NC2(C(=O)O)Cc3ccccc3C2)cc1-c1cc(C)c(C)cc1C [Example 317] | 100 to 1000 nM
8 | CCCOc1cccc(-c2cc(C(=O)NC3(C(=O)O)Cc4ccccc4C3)ccc2OC)c1 [Example 318] | < 100 nM
9 | COc1ccc(C(=O)NC2(C(=O)O)Cc3ccccc3C2)cc1-c1cccc(OC(C)C)c1 [Example 319] | 100 to 1000 nM
10 | COc1ccc(C(=O)NC2(C(=O)O)Cc3ccccc3C2)cc1-c1cc(C(F)(F)F)ccc1F [Example 320] | < 100 nM
11 | CCCOc1ccc(-c2cc(C(=O)NC3(C(=O)O)Cc4ccccc4C3)ccc2OC)cc1Cl [Example 321] | 1000 to 30000 nM
12 | COc1ccc(C(=O)NC2(C(=O)O)Cc3ccccc3C2)cc1-c1ccc(C(F)(F)F)c(Cl)c1 [Example 322] | < 100 nM
13 | CNC(=O)c1cccc(-c2cc(C(=O)NC3(C(=O)O)Cc4ccccc4C3)ccc2OC)c1 [Example 323] | 1000 to 30000 nM
14 | COc1ccc(C(=O)NC2(C(=O)O)Cc3ccccc3C2)cc1-c1cccc(OCC2CC2)c1 [Example 324] | 1000 to 30000 nM
15 | COc1ccc(-c2cc(C(=O)NC3(C(=O)O)Cc4ccccc4C3)ccc2OC)cc1Cl [Example 325] | < 100 nM
16 | COc1ccc(C(=O)NC2(C(=O)O)Cc3ccccc3C2)cc1-c1ccc2occc2c1 [Example 326] | 100 to 1000 nM
17 | COc1ccc(C(=O)NC2(C(=O)O)Cc3ccccc3C2)cc1-c1cccc(Cl)c1C [Example 327] | < 100 nM
18 | COc1ccc(C(=O)NC2(C(=O)O)Cc3ccccc3C2)cc1-c1cccc(CCC(=O)O)c1 [Example 328] | 100 to 1000 nM
19 | COc1ccc(C(=O)NC2(C(=O)O)Cc3ccccc3C2)cc1-c1ccsc1Cl [Example 329] | 1000 to 30000 nM
20 | COc1ccc(C(=O)NC2(C(=O)O)Cc3ccccc3C2)cc1-c1ccc2c(ccn2C)c1 [Example 330] | 1000 to 30000 nM
21 | CCOc1ccc2ccccc2c1-c1cc(C(=O)NC2(C(=O)O)Cc3ccccc3C2)ccc1OC [Example 331] | 100 to 1000 nM
22 | COc1ccc(C(=O)NC2(C(=O)O)Cc3ccccc3C2)cc1-c1cc(Cl)ccc1F [Example 332] | 100 to 1000 nM
23 | COc1ccc(C(=O)NC2(C(=O)O)Cc3ccccc3C2)cc1-c1cc(Cl)cc(C)c1F [Example 333] | < 100 nM
24 | COc1ccc(C(=O)NC2(C(=O)O)Cc3ccccc3C2)cc1-c1cccc(-n2cccn2)c1 [Example 334] | 100 to 1000 nM
25 | COc1ccc(C(=O)NC2(C(=O)O)Cc3ccccc3C2)cc1-c1cc(F)ccc1OC(C)C [Example 335] | < 100 nM
26 | COc1ccc(C(=O)NC2(C(=O)O)Cc3ccccc3C2)cc1-c1cc(OC(C)C)ccc1F [Example 336] | 1000 to 30000 nM

Row | SMILES | IC50
27 | COc1ccc(C(=O)NC2(C(=O)O)Cc3ccccc3C2)cc1-c1cc(F)cc(C(F)(F)F)c1 [Example 337] | < 100 nM
28 | COc1ccc(C(=O)NC2(C(=O)O)Cc3ccccc3C2)cc1-c1cccc(CN(C)C)c1 [Example 338] | 1000 to 30000 nM
29 | COc1ccc(C(=O)NC2(C(=O)O)Cc3ccccc3C2)cc1-c1cccc(CNC(C)=O)c1 [Example 339] | 100 to 1000 nM
30 | CCOc1ccc(-c2cc(C(=O)NC3(C(=O)O)Cc4ccccc4C3)ccc2OC)cc1C [Example 340] | 100 to 1000 nM
31 | COc1ccc(C(=O)NC2(C(=O)O)Cc3ccccc3C2)cc1-c1ccc(OC(C)C)c(C)c1 [Example 341] | 1000 to 30000 nM
32 | COc1ccc(C(=O)NC2(C(=O)O)Cc3ccccc3C2)cc1-c1cc(F)cc(Cl)c1 [Example 342] | < 100 nM
33 | COc1ccc(C(=O)NC2(C(=O)O)Cc3ccccc3C2)cc1-c1cc(F)cc(OC(C)C)c1 [Example 343] | < 100 nM
34 | COc1ccc(C(=O)NC2(C(=O)O)Cc3ccccc3C2)cc1-c1cc(F)cc(OCC(C)C)c1 [Example 344] | 100 to 1000 nM
35 | COc1ccc(C(=O)NC2(C(=O)O)Cc3ccccc3C2)cc1-c1ccc(F)c(C(F)(F)F)c1 [Example 345] | < 100 nM
36 | COc1ccc(C(=O)NC2(C(=O)O)Cc3ccccc3C2)cc1-c1cccc(OCC(F)(F)F)c1 [Example 346] | 100 to 1000 nM
37 | COc1ccc(C(=O)NC2(C(=O)O)Cc3ccccc3C2)cc1-c1cc(Cl)cc(C(F)(F)F)c1 [Example 347] | < 100 nM
38 | COc1ccc(C(=O)NC2(C(=O)O)Cc3ccccc3C2)cc1-c1cccc(C(F)(F)F)c1F [Example 348] | < 100 nM
39 | COc1cc(-c2cc(C(=O)NC3(C(=O)O)Cc4ccccc4C3)ccc2OC)cc(C(F)(F)F)c1 [Example 349] | < 100 nM
40 | COc1ccc(C(=O)NC2(C(=O)O)Cc3ccccc3C2)cc1-c1cccc(NC(=O)C(C)C)c1 [Example 350] | 1000 to 30000 nM
41 | COc1ccc(C(=O)NC2(C(=O)O)Cc3ccccc3C2)cc1-c1cc(Cl)ccc1C(F)(F)F [Example 351] | < 100 nM
42 | COc1ccc(C(=O)NC2(C(=O)O)Cc3ccccc3C2)cc1OCCc1cc(Cl)ccc1Cl [Example 352] | < 100 nM
43 | COc1ccc(C(=O)NC2(C(=O)O)Cc3ccccc3C2)cc1OCCc1nonc1C [Example 353] | 1000 to 30000 nM
44 | COc1ccc(C(=O)NC2(C(=O)O)Cc3ccccc3C2)cc1OCCc1noc2ccccc12 [Example 354] | 1000 to 30000 nM
45 | COc1ccc(C(=O)NC2(C(=O)O)Cc3ccccc3C2)cc1OCCc1cc(OC(F)(F)F)ccc1F [Example 355, 2-{3-[2-(2-fluoro-5-trifluoromethoxy-phenyl)-ethoxy]-4-methoxy-benzoylamino}-indane-2-carboxylic acid] | < 100 nM
46 | CCS(=O)(=O)c1cccc(-c2cc(C(=O)NC3(C(=O)O)Cc4ccccc4C3)cc(F)c2OC)c1 [Example 357, 2-[(3′-Ethanesulfonyl-5-fluoro-6-methoxy-biphenyl-3-carbonyl)-amino]-indane-2-carboxylic acid] | < 100 nM
47 | COc1c(F)cc(C(=O)NC2(C(=O)O)Cc3ccccc3C2)cc1-c1ccc(Cl)cc1 [Example 358] | < 100 nM
48 | COc1c(F)cc(C(=O)NC2(C(=O)O)Cc3ccccc3C2)cc1-c1cccc(NS(C)(=O)=O)c1 [Example 359] | < 100 nM
49 | COc1c(F)cc(C(=O)NC2(C(=O)O)Cc3ccccc3C2)cc1-c1cccc(C(C)C)c1 [Example 360, 2-[(5-fluoro-3′-isopropyl-6-methoxy-biphenyl-3-carbonyl)-amino]-indane-2-carboxylic acid] | < 100 nM
50 | COc1c(F)cc(C(=O)NC2(C(=O)O)Cc3ccccc3C2)cc1-c1cccc(NS(=O)(=O)N(C)C)c1 [Example 361] | < 100 nM
51 | O=C(NC1(C(=O)O)Cc2ccccc2C1)c1ccc(C(F)(F)F)c(OCCc2cc(Cl)ccc2Cl)c1 [Example 362, 2-{3-[2-(2,5-Dichloro-phenyl)-ethoxy]-4-trifluoromethyl-benzoylamino}-indane-2-carboxylic acid] | < 100 nM
